Key:
MDA-MB-435 [1] = assay: Cytotoxicity against human MDA-MB-435 cells after 48 hrs by sulforhodamine B assay; format: cell-based; conditions: mda-mb-435, 48 h
SK-MEL-28 = assay: Cytotoxicity against human SK-MEL-28 cells after 48 hrs by sulforhodamine B assay; format: cell-based; conditions: sk-mel-28, 48 h
SK-MEL-5 = assay: Cytotoxicity against human SK-MEL-5 cells after 48 hrs by sulforhodamine B assay; format: cell-based; conditions: sk-mel-5, 48 h
UACC-62 = assay: Cytotoxicity against human UACC62 cells after 48 hrs by sulforhodamine B assay; format: cell-based; conditions: uacc-62, 48 h
OVCAR-8 [2] = assay: Cytotoxicity against human OVCAR8 cells after 48 hrs by sulforhodamine B assay; format: cell-based; conditions: ovcar-8, 48 h
ACHN [3] = assay: Cytotoxicity against human ACHN cells after 48 hrs by sulforhodamine B assay; format: cell-based
SN12C = assay: Cytotoxicity against human SN12C cells after 48 hrs by sulforhodamine B assay; format: cell-based
CCRF-CEM = assay: Growth inhibition of human CCRF-CEM cells after 48 hrs by sulforhodamine B assay; format: functional
HL-60(TB) = assay: Growth inhibition of human HL-60(TB) cells after 48 hrs by sulforhodamine B assay; format: functional; conditions: HL-60, 48 h
HOP-92 = assay: Growth inhibition of human HOP92 cells after 48 hrs by sulforhodamine B assay; format: functional; conditions: HOP-92, 48 h
T47D = assay: Cytotoxicity against human T47D cells after 48 hrs by sulforhodamine B assay; format: cell-based
[4] = test system: Tyrosine-protein kinase ABL1 (Homo sapiens), P00519 [F317I]; assay: Binding affinity to human phosphorylated ABL1 F317I mutant at 10 uM incubated for 1 hr by kinase binding assay relative to untreated control
Sequence of Tyrosine-protein kinase ABL1 (Homo sapiens), P00519 [F317I] (P00519 whole entry F317I): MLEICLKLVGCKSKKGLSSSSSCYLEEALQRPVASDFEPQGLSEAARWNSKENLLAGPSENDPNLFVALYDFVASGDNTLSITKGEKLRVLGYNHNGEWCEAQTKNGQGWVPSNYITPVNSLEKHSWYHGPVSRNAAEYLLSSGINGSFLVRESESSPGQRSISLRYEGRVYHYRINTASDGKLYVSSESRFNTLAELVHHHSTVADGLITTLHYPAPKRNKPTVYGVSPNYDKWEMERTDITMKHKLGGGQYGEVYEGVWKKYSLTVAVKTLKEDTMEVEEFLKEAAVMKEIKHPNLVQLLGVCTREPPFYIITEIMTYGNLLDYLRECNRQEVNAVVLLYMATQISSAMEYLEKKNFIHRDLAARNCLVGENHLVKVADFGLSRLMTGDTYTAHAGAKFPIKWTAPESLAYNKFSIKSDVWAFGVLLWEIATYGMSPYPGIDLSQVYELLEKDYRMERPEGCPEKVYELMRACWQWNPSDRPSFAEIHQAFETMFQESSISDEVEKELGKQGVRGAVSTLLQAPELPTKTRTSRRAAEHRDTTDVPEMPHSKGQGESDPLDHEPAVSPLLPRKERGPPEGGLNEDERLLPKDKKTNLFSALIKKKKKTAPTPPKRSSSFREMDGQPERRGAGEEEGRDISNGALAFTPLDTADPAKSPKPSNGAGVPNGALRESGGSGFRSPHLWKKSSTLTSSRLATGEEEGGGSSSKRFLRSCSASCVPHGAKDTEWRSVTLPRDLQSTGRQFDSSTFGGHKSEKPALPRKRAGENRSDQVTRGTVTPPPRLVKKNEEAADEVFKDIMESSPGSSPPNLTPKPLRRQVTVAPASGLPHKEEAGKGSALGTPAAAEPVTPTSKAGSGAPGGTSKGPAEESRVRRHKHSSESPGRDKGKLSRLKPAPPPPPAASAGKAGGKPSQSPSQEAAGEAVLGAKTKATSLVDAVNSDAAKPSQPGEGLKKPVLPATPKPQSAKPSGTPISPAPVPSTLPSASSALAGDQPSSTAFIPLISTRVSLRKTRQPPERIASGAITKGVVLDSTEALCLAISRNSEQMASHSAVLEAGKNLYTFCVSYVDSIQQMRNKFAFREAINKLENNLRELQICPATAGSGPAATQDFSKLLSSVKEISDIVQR

[5] = test system: Tyrosine-protein kinase ABL1 (Homo sapiens), P00519 [F317L]; assay: Binding affinity to human phosphorylated ABL1 F317L mutant at 10 uM incubated for 1 hr by kinase binding assay relative to untreated control
Sequence of Tyrosine-protein kinase ABL1 (Homo sapiens), P00519 [F317L] (P00519 whole entry F317L): as the sequence (P00519 whole entry F317I) above, with I317L counted along it

[6] = biological target: Receptor-type tyrosine-protein kinase FLT3 (Homo sapiens) (UniProt P36888); assay: Binding affinity to human FLT3 at 10 uM incubated for 1 hr by kinase binding assay relative to untreated control
Sequence of Receptor-type tyrosine-protein kinase FLT3 (Homo sapiens) (P36888 whole entry): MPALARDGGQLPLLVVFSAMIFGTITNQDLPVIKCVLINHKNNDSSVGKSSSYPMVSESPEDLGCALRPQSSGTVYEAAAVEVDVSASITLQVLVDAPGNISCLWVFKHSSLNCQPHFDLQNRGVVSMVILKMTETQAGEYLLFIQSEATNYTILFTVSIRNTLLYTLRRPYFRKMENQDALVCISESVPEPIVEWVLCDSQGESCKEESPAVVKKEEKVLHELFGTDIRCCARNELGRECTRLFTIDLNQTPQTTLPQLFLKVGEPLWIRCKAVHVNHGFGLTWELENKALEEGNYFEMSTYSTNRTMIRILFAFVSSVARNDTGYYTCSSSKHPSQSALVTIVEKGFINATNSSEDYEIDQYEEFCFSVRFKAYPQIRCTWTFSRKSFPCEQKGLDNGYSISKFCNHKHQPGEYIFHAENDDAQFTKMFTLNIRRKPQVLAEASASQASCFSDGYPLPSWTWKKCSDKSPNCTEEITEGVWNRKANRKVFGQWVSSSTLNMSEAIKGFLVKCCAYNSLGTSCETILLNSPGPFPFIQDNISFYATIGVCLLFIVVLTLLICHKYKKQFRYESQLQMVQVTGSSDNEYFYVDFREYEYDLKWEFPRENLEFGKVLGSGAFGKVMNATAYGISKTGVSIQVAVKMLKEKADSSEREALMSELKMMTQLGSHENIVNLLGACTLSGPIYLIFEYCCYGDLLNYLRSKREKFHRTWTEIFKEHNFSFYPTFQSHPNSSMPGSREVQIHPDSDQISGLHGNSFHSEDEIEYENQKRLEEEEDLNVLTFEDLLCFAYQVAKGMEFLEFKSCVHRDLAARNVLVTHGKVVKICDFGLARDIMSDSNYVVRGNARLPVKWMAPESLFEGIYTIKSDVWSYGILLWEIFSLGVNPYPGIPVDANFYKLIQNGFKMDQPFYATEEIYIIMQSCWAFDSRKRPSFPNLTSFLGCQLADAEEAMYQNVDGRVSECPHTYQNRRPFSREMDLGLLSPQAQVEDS

COLO 205 [7] = assay: Growth inhibition of human COLO205 cells after 48 hrs by sulforhodamine B assay; format: functional; conditions: COLO 205, 48 h
SF-539 [8] = assay: Growth inhibition of human SF539 cells after 48 hrs by sulforhodamine B assay; format: functional; conditions: SF-539, 48 h
Malme-3M = assay: Growth inhibition of human MALME-3M cells after 48 hrs by sulforhodamine B assay; format: functional
MDA-MB-435 [9] = assay: Growth inhibition of human MDA-MB-435 cells after 48 hrs by sulforhodamine B assay; format: functional; conditions: MDA-MB-435, 48 h
UACC-257 = assay: Growth inhibition of human UACC257 cells after 48 hrs by sulforhodamine B assay; format: functional; conditions: UACC-257, 48 h
OVCAR-3 = assay: Growth inhibition of human OVCAR3 cells after 48 hrs by sulforhodamine B assay; format: functional; conditions: OVCAR-3, 48 h
OVCAR-5 = assay: Growth inhibition of human OVCAR5 cells after 48 hrs by sulforhodamine B assay; format: functional; conditions: OVCAR-5, 48 h
OVCAR-8 [10] = assay: Growth inhibition of human OVCAR8 cells after 48 hrs by sulforhodamine B assay; format: functional; conditions: OVCAR-8, 48 h
SK-OV-3 = assay: Growth inhibition of human SKOV3 cells after 48 hrs by sulforhodamine B assay; format: functional; conditions: SK-OV-3, 48 h
A498 = assay: Growth inhibition of human A498 cells after 48 hrs by sulforhodamine B assay; format: functional; conditions: A498, 48 h
[11] = biological target: Mast/stem cell growth factor receptor Kit (Homo sapiens) (UniProt P10721); assay: Binding affinity to human KIT at 10 uM incubated for 1 hr by kinase binding assay relative to untreated control
Sequence of Mast/stem cell growth factor receptor Kit (Homo sapiens) (P10721 whole entry): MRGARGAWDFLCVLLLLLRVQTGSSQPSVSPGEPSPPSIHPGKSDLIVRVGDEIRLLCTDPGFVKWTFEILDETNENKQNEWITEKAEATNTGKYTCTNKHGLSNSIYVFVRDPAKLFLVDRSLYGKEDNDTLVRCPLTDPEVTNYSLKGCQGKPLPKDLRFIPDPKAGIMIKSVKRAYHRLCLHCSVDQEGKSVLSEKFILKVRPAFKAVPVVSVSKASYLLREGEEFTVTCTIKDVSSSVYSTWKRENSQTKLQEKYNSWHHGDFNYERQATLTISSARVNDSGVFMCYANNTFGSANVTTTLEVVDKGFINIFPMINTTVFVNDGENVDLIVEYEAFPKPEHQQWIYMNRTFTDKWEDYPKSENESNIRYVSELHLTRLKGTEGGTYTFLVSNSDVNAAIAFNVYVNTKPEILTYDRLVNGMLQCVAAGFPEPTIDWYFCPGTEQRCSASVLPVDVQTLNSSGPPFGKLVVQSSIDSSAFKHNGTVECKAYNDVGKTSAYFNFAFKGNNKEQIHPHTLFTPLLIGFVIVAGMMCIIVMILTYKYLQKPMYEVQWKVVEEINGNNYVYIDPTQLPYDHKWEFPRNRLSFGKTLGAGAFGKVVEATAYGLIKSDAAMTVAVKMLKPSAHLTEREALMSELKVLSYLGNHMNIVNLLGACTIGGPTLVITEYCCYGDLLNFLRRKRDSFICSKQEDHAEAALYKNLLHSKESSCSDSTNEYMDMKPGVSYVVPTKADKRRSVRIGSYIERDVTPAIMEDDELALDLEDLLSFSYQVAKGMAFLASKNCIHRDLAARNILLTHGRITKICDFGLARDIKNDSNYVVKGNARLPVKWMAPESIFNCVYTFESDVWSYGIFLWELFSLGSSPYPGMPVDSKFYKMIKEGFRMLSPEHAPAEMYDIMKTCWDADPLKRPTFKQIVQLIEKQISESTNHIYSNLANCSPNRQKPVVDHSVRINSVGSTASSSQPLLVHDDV

[12] = test system: Mast/stem cell growth factor receptor Kit (Homo sapiens), P10721 [D816H]; assay: Binding affinity to human KIT D816H mutant at 10 uM incubated for 1 hr by kinase binding assay relative to untreated control
Sequence of Mast/stem cell growth factor receptor Kit (Homo sapiens), P10721 [D816H] (P10721 whole entry D816H): as the sequence (P10721 whole entry) above, with D816H counted along it

[13] = biological target: Platelet-derived growth factor receptor alpha (Homo sapiens) (UniProt P16234); assay: Binding affinity to human PDGFRA at 10 uM incubated for 1 hr by kinase binding assay relative to untreated control
[14] = biological target: Platelet-derived growth factor receptor beta (Homo sapiens) (UniProt P09619); assay: Binding affinity to human PDGFRB at 10 uM incubated for 1 hr by kinase binding assay relative to untreated control
Sequence of Platelet-derived growth factor receptor beta (Homo sapiens) (P09619 whole entry): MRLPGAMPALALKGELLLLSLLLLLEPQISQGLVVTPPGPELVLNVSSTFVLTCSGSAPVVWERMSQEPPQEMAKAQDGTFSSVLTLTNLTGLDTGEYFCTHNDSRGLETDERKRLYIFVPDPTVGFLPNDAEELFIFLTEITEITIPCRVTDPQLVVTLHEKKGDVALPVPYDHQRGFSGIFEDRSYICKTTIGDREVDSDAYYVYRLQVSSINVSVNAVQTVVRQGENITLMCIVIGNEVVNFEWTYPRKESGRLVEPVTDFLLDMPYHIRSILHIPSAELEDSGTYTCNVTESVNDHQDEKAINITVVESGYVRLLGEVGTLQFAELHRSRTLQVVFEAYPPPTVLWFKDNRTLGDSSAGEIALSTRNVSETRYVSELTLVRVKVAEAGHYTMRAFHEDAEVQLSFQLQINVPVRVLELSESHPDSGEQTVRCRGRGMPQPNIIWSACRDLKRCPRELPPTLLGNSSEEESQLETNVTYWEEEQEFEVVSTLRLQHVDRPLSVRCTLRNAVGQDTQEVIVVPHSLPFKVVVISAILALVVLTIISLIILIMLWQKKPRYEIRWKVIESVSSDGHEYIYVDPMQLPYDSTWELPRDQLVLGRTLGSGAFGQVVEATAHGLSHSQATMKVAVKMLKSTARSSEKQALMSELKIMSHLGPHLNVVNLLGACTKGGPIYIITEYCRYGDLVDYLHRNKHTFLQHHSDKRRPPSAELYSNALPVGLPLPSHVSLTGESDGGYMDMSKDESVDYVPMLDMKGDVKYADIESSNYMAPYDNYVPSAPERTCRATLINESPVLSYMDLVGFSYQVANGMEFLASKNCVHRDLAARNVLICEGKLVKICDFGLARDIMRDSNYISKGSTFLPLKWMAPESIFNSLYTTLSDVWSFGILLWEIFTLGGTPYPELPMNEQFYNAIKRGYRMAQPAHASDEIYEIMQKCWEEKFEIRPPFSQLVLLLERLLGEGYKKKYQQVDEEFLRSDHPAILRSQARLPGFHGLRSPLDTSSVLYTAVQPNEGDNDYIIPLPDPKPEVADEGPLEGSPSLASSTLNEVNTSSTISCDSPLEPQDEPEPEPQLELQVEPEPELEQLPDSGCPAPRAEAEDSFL

ACHN [15] = assay: Growth inhibition of human ACHN cells after 48 hrs by sulforhodamine B assay; format: functional
CAKI-1 = assay: Growth inhibition of human Caki1 cells after 48 hrs by sulforhodamine B assay; format: functional; conditions: CAKI-1, 48 h
RXF 393 = assay: Growth inhibition of human RXF393 cells after 48 hrs by sulforhodamine B assay; format: functional; conditions: RXF 393, 48 h
UO-31 = assay: Growth inhibition of human UO31 cells after 48 hrs by sulforhodamine B assay; format: functional; conditions: UO-31, 48 h
PC-3 = assay: Growth inhibition of human PC3 cells after 48 hrs by sulforhodamine B assay; format: functional; conditions: PC-3, 48 h
NCI-H226 = assay: Cytotoxicity against human NCI-H226 cells after 48 hrs by sulforhodamine B assay; format: cell-based; conditions: nci-h226, 48 h
[16] = biological target: Tyrosine-protein kinase ABL1 (Homo sapiens) (UniProt P00519); assay: Inhibition of human ABL using gamma-33P-ATP as substrate assessed as enzyme functional activity at 1 uM by scintillation counting relative to untreated control; parameters: scale not given: the % may be the effect or the level left
Sequence of Tyrosine-protein kinase ABL1 (Homo sapiens) (P00519 whole entry): as the sequence (P00519 whole entry F317I) above, with I317F counted along it

[17] = biological target: Mast/stem cell growth factor receptor Kit (Homo sapiens) (UniProt P10721); assay: Inhibition of human KIT using gamma-33P-ATP as substrate assessed as enzyme functional activity at 1 uM by scintillation counting relative to untreated control; parameters: scale not given: the % may be the effect or the level left
[18] = test system: Mast/stem cell growth factor receptor Kit (Homo sapiens), P10721 [V560G]; assay: Inhibition of human KIT V560G using gamma-33P-ATP as substrate assessed as enzyme functional activity at 1 uM by scintillation counting relative to untreated control; parameters: scale not given: the % may be the effect or the level left
Sequence of Mast/stem cell growth factor receptor Kit (Homo sapiens), P10721 [V560G] (P10721 whole entry V560G): as the sequence (P10721 whole entry) above, with V560G counted along it

NCI-H322M = assay: Cytotoxicity against human NCI-H322M cells after 48 hrs by sulforhodamine B assay; format: cell-based
NCI-H522 = assay: Cytotoxicity against human NCI-H522 cells after 48 hrs by sulforhodamine B assay; format: cell-based; conditions: nci-h522, 48 h
COLO 205 [19] = assay: Cytotoxicity against human COLO205 cells after 48 hrs by sulforhodamine B assay; format: cell-based; conditions: colo 205, 48 h
HCT-116 = assay: Cytotoxicity against human HCT116 cells after 48 hrs by sulforhodamine B assay; format: cell-based; conditions: hct-116, 48 h
HT-29 = assay: Cytotoxicity against human HT-29 cells after 48 hrs by sulforhodamine B assay; format: cell-based; conditions: ht-29, 48 h
SF-539 [20] = assay: Cytotoxicity against human SF539 cells after 48 hrs by sulforhodamine B assay; format: cell-based; conditions: sf-539, 48 h
RPMI-8226 = assay: Growth inhibition of human RPMI8226 cells after 48 hrs by sulforhodamine B assay; format: functional; conditions: RPMI-8226, 48 h
BT-549 = assay: Growth inhibition of human BT549 cells after 48 hrs by sulforhodamine B assay; format: functional; conditions: BT-549, 48 h

CCc1cnc(N2CCN(C(=O)c3ccc(CNc4ncnc5ccccc45)cc3)CC2)nc1
LC50 (MDA-MB-435 [1]): > 100 µM | LC50 (SK-MEL-28): > 100 µM | LC50 (SK-MEL-5): 20.8 µM | LC50 (UACC-62): > 100 µM | LC50 (OVCAR-8 [2]): > 100 µM | LC50 (ACHN [3]): > 100 µM | LC50 (SN12C): > 100 µM | GI50 (CCRF-CEM): 10 µM | TGI (CCRF-CEM): 60.9 µM | TGI (HL-60(TB)): 38.6 µM | TGI (HOP-92): 80.1 µM | LC50 (T47D): > 100 µM | Activity [4]: > 50% | Activity [5]: 6.8% | Activity [6]: > 50% | TGI (COLO 205 [7]): 38.2 µM | TGI (SF-539 [8]): > 100 µM | TGI (Malme-3M): 42.2 µM | TGI (MDA-MB-435 [9]): > 100 µM | TGI (UACC-257): 26.8 µM | TGI (OVCAR-3): > 100 µM | TGI (OVCAR-5): > 100 µM | TGI (OVCAR-8 [10]): > 100 µM | TGI (SK-OV-3): > 100 µM | TGI (A498): > 100 µM | Activity [11]: > 50% | Activity [12]: > 50% | Activity [13]: > 50% | Activity [14]: > 50% | TGI (ACHN [15]): 82.5 µM | TGI (CAKI-1): 94.8 µM | TGI (RXF 393): 41.6 µM | TGI (UO-31): 60.5 µM | TGI (PC-3): > 100 µM | LC50 (NCI-H226): > 100 µM | Activity [16]: 80% | Activity [17]: 100% | Activity [18]: 99% | LC50 (NCI-H322M): > 100 µM | LC50 (NCI-H522): > 100 µM | LC50 (COLO 205 [19]): > 100 µM | LC50 (HCT-116): > 100 µM | LC50 (HT-29): > 100 µM | LC50 (SF-539 [20]): > 100 µM

c1ccc(Cc2cnc(N3CCN(c4ncnc5ccccc45)CC3)nc2)cc1
LC50 (MDA-MB-435 [1]): 91.4 µM | LC50 (SK-MEL-28): > 100 µM | LC50 (SK-MEL-5): 37.7 µM | LC50 (UACC-62): 63.1 µM | LC50 (OVCAR-8 [2]): 71.3 µM | LC50 (ACHN [3]): > 100 µM | LC50 (SN12C): 54.8 µM | TGI (CCRF-CEM): 64.4 µM | TGI (HL-60(TB)): 41.8 µM | TGI (RPMI-8226): 21.8 µM | TGI (HOP-92): 24.2 µM | LC50 (T47D): > 100 µM | Activity [4]: 30% | Activity [5]: > 50% | Activity [6]: 8.4% | TGI (COLO 205 [7]): > 100 µM | TGI (SF-539 [8]): 28.5 µM | TGI (Malme-3M): 33.6 µM | TGI (MDA-MB-435 [9]): 27.5 µM | TGI (OVCAR-3): 23.2 µM | TGI (OVCAR-5): 69.8 µM | TGI (OVCAR-8 [10]): 25.6 µM | TGI (SK-OV-3): > 100 µM | TGI (A498): 24.2 µM | Activity [12]: 30% | Activity [14]: 4.1% | TGI (ACHN [15]): 42.4 µM | TGI (CAKI-1): 39.3 µM | TGI (RXF 393): 57.9 µM | TGI (UO-31): 38.4 µM | TGI (PC-3): > 100 µM | TGI (BT-549): 18.4 µM | LC50 (NCI-H226): > 100 µM | Activity [16]: 92% | LC50 (NCI-H322M): > 100 µM | LC50 (NCI-H522): > 100 µM | LC50 (COLO 205 [19]): > 100 µM | LC50 (HCT-116): 36.4 µM | LC50 (HT-29): 79.2 µM | LC50 (SF-539 [20]): 56.1 µM

O=C(c1cccc(Nc2ncnc3ccccc23)c1)N1CCN(c2ncc(Cc3ccccc3)cn2)CC1
LC50 (MDA-MB-435 [1]): 4.57 µM | LC50 (SK-MEL-28): 5.25 µM | LC50 (SK-MEL-5): 3.47 µM | LC50 (UACC-62): 5.37 µM | LC50 (OVCAR-8 [2]): > 100 µM | LC50 (ACHN [3]): > 100 µM | LC50 (SN12C): > 100 µM | TGI (RPMI-8226): 0.6 µM | LC50 (T47D): 5.62 µM | Activity [4]: 20% | Activity [5]: > 50% | Activity [6]: > 50% | TGI (COLO 205 [7]): 2.75 µM | TGI (SF-539 [8]): 4.9 µM | TGI (MDA-MB-435 [9]): 2.14 µM | TGI (UACC-257): 2.63 µM | TGI (OVCAR-3): 8.13 µM | TGI (OVCAR-5): 5.75 µM | TGI (SK-OV-3): 4.47 µM | TGI (A498): 5.37 µM | Activity [11]: > 50% | Activity [12]: > 50% | Activity [13]: > 50% | Activity [14]: > 50% | TGI (ACHN [15]): 4.57 µM | TGI (RXF 393): 11.5 µM | TGI (BT-549): 1.74 µM | LC50 (NCI-H226): 7.94 µM | Activity [16]: 87% | Activity [17]: 100% | Activity [18]: 86% | LC50 (NCI-H322M): > 100 µM | LC50 (NCI-H522): 5.13 µM | LC50 (COLO 205 [19]): 5.5 µM | LC50 (HCT-116): > 100 µM | LC50 (HT-29): > 100 µM | LC50 (SF-539 [20]): > 100 µM
